Experimental data: ChEMBL document CHEMBL1212789, “Activity and toxicity of farnesol towards Candida albicans are dependent on growth conditions” (Antimicrob Agents Chemother, 2010)
The source made the active and inactive calls. No cut-off for these calls is given here.

Key:
Assay type in all cases: functional, organism-based
Candida albicans [1] = assay: Antifungal activity against log phase culture of Candida albicans in GPP medium at 300 uM after 4 hrs by methylene blue assay
Candida albicans [2] = assay: Antifungal activity against stationary phase culture of Candida albicans in YPD medium at 10 to 300 uM at 25 degC after 24 hrs by methylene blue assay
Candida albicans [3] = assay: Antifungal activity against stationary phase culture of Candida albicans in GPP medium at 10 to 300 uM at 30 degC after 24 hrs by methylene blue assay
Candida albicans [4] = assay: Antifungal activity against stationary phase culture of Candida albicans in YPD medium at 10 to 300 uM at 30 degC after 24 hrs by methylene blue assay
Candida albicans [5] = assay: Antifungal activity against exponential phase culture of Candida albicans in YPD medium at 10 to 300 uM at 25 degC after 24 hrs by methylene blue assay
Candida albicans [6] = assay: Antifungal activity against log phase culture of Candida albicans in GPP medium at 100 uM after 1 hr by methylene blue assay
Candida albicans [7] = assay: Antifungal activity against exponential phase culture of Candida albicans in GPP medium at 10 to 300 uM at 25 degC after 24 hrs by methylene blue assay
Candida albicans [8] = assay: Antifungal activity against stationary phase culture of Candida albicans in YPD medium at 10 to 300 uM at 37 degC after 24 hrs by methylene blue assay
Candida albicans [9] = assay: Antifungal activity against exponential phase culture of Candida albicans in GPP medium at 40 uM after 24 hrs by methylene blue assay
Candida albicans [10] = assay: Antifungal activity against stationary phase culture of Candida albicans in GPP medium at 10 to 300 uM at 37 degC after 24 hrs by methylene blue assay
Candida albicans [11] = assay: Antifungal activity against stationary phase culture of Candida albicans in GPP medium up to 300 uM after 24 hrs by methylene blue assay
Candida albicans [12] = assay: Antifungal activity against exponential phase culture of Candida albicans at 10 to 300 uM treated directly to growing cultures measured after 4 hrs by methylene blue assay
Candida albicans [13] = assay: Antifungal activity against exponential phase culture of Candida albicans in GPP medium at 10 to 300 uM at 30 degC after 24 hrs by methylene blue assay
Candida albicans [14] = assay: Antifungal activity against Candida albicans in YPD medium at => 300 uM after 24 hrs by methylene blue assay
Candida albicans [15] = assay: Antifungal activity against log phase culture of Candida albicans at 10 to 300 uM treated directly to growing cultures measured after 4 hrs by methylene blue assay
Candida albicans [16] = assay: Antifungal activity against stationary phase culture of Candida albicans in GPP medium at 10 to 300 uM at 25 degC after 24 hrs by methylene blue assay
Candida albicans [17] = assay: Antifungal activity against exponential phase culture of Candida albicans in YPD medium at 10 to 300 uM at 30 degC after 24 hrs by methylene blue assay
Candida albicans [18] = assay: Antifungal activity against exponential phase culture of Candida albicans in YPD medium at 10 to 300 uM at 37 degC after 24 hrs by methylene blue assay
Candida albicans [19] = assay: Antifungal activity against Candida albicans in YPD medium up to 300 uM after 24 hrs by methylene blue assay
Candida albicans [20] = assay: Antifungal activity against exponential phase culture of Candida albicans in GPP medium at 10 to 300 uM at 37 degC after 24 hrs by methylene blue assay
Candida albicans [21] = assay: Antifungal activity against log phase culture of Candida albicans in GPP medium at 40 uM after 24 hrs by methylene blue assay

With `CC(C)=CCC/C(C)=C/CC/C(C)=C/CO` the Activity (Candida albicans [1]) was “Active”, the Activity (Candida albicans [2]) was “inactive” and the Activity (Candida albicans [3]) was “inactive”. For the same compound, the Activity (Candida albicans [4]) was “inactive”, the Activity (Candida albicans [5]) was “inactive” and the Activity (Candida albicans [6]) was “Active”. The Activity (Candida albicans [7]) was “inactive”, the Activity (Candida albicans [8]) was “inactive” and the Activity (Candida albicans [9]) was “Active”. For the same compound, the Activity (Candida albicans [10]) was “inactive”, the Activity (Candida albicans [11]) was “inactive” and the Activity (Candida albicans [12]) was “Active”. The Activity (Candida albicans [13]) was “inactive”, the Activity (Candida albicans [14]) was “Active” and the Activity (Candida albicans [15]) was “Active”. The Activity (Candida albicans [16]) was “inactive”, the Activity (Candida albicans [17]) was “inactive” and the Activity (Candida albicans [18]) was “inactive”. For the same compound, the Activity (Candida albicans [19]) was “inactive”, the Activity (Candida albicans [20]) was “inactive” and the Activity (Candida albicans [21]) was “Active”.
